Results published in patent US20260317367A1, “SALTS INCLUDING CRYSTALLINE SALTS OF 25-HYDROXY-CHOLEST-5-EN-3-SULFATE AND METHODS FOR PREPARING SAME” (Durect Corporation, priority 2022, published 2026).
“Also recorded” adds a separate entry of the source. Counter-ions that a name gives are not always drawn. Values belong to the molecule of their own block, whether it stands above or below them.

Experiments:
[1] = Solid-state chemical stability of 25HC3S salts at 2-8° C., 60° C. and 80° C. (HPLC assay and degradation products); format: physicochemical; conditions: for % Impurities, Total / % Impurities, 25-HC: ND = Not Detected; for % Impurities, 25-HC: 25-Hydroxy-Cholesterol; for % Recovery: vs 2-8° C.; for Stability after 1 week at 60° C. (in words) / Stability after 3 weeks at 80° C. (in words): solid state; for Stability after 1 week at 60° C. (in words): 1 week (after 3 weeks at 2-8° C.)
Method: Approximately 25 mg of each crystalline 25HC3S salt was added to 20 mL glass vials and each powder weight was recorded. Four vials were prepared for each salt and stored at 2-8° C. or 80° C. according to Table B2. The samples were scheduled initially to pull for testing at 3 weeks and 6 weeks' time points.
For those […] salts, the remaining vials stored at 2-8° C. for 3 weeks were allocated for storage at 60° C. for 1 week. Additional stability data was generated according to Table B3.
Based on the molecular weights, and expected UV response factors of each salt used in this study, the expected analytical sample concentrations were within the range of the 25HC3S sodium reference standards (0.75 mg/mL to 1.25 mg/mL as 25HC3S sodium salt). However, due to the lower-than-expected purity of the 25HC3S benzathine salt, an additional standard was prepared at 0.125 mg/mL as 25HC3S sodium salt.
Samples were prepared by pipetting 20 mL of 100% methanol into each vial and mixing well, with sonication and vortexing to fully dissolve the samples for HPLC analysis.
Samples were prepared by pipetting 20 mL of 100% methanol into each vial followed by two rounds of sonication for 30 minutes, with 30 seconds of vortexing before and after each round. Sample aliquots were then centrifuged at 10,000 RPM for 10 minutes and the supernatant collected for HPLC analysis.
Samples were prepared by pipetting 20 mL of 100% methanol into each vial, followed by 5 seconds of vortexing. The undissolved powder in methanol was quantitatively transferred into 200 mL volumetric flasks. The sample vials were rinsed 3 times with methanol, with each rinsate transferred to the 200 mL volumetric flasks. The volumetric flasks were filled to about 90% volume and sonicated for 10 minutes to fully dissolve the powder. The flasks were filled to volume with methanol, mixed well and aliquots collected for HPLC analysis.
HPLC analysis was performed.

[2] = Solubility of 25HC3S salts after one day at room temperature (HPLC, as free acid); format: physicochemical; conditions: one day; for Solubility in methanol (in words): MeOH
Method: These fluids were prepared per the instruction listed by Biorelevant (Biorelevant.com). Each buffer concentrate was diluted with water and mixed well. FaSSIF, FeSSIF, FaSSGF powder was added to each buffer and mixed to completely dissolve the powder. Buffers were stored at room temperature and used within 48 hours of preparation.
25HC3S salts were weighed in 8 mL or 4 mL glass vials with Teflon coated screw caps. Aliquots of each solvent were added to each sample and vortexed for about one minute until excess solid remained. Samples were placed on shaker at room temperature with 210 motion per minute shaking.
After one day, samples were pulled and checked if excess solid was present. About 1.5 mL aliquot of each sample was centrifuged at 12000 rpm for 12 to 15 minutes. […] Aliquots of the top clear solution of each centrifuged sample in MeOH, EtOH, IPA and ACN were diluted with diluent (water:MeOH 95:5) and assayed by HPLC. Samples of the salts in aqueous media were assayed by HPLC without dilution.
All solubility sample solutions of 25HC3S salts were determined using HPLC. A linear standard curve was constructed using standards with concentration between 11 μg/mL to 1.5 mg/mL as free acid forcing the curve to origin. Solubilities are reported as mg/mL free acid 25HC3S. Detection limit (LOD) of the HPLC method was calculated as 0.0007 mg/mL.

[3] = 2-8° C., 3 wk, listed as 25HC3S hydroxyethylpyrrolidinium
[4] = 60° C., 1 wk, listed as 25HC3S hydroxyethylpyrrolidinium
[5] = 80° C., 3 wk, listed as 25HC3S hydroxyethylpyrrolidinium
[6] = room temperature, listed as crystalline 25HC3S hydroxyethylpyrrolidinium
[7] = 2-8° C., 3 wk, listed as 25HC3S magnesium
[8] = 60° C., 1 week, listed as 25HC3S Magnesium
[9] = 80° C., 3 weeks, listed as 25HC3S Magnesium
[10] = room temperature, listed as crystalline 25HC3S magnesium

Assay ([1]; 2-8° C., 3 wk, 30240 min, listed as 25HC3S hydroxyethylpyrrolidinium): 100.5 % w/w | % Impurities, Total [1, 3]: 2.0% | % Impurities, 25-HC [1, 3]: 0.3% | % Impurities, 25-HC [1, 4]: 0.4% | % Impurities, 25-HC [1, 5]: 0.3% | Physical and chemical solid-state stability (comments) ([1]; 60° C., 1 week, listed as 25HC3S Hydroxyethylpyrrolidinium): Stable after 1 week at 60 °C | Assay ([1]; 60° C., 1 wk (after 3 weeks at 2-8° C.), 10080 min, listed as 25HC3S hydroxyethylpyrrolidinium, 10080 min): 104.9 % w/w | % Recovery of 2-8° C./3 wk vs 60° C./1 wk ([1]; 60° C., 1 wk, 10080 min, listed as 25HC3S hydroxyethylpyrrolidinium): 104.4% | % Impurities, Total [1, 4]: 1.8% | Physical and chemical solid-state stability (comments) ([1]; 80° C., 3 weeks, listed as 25HC3S Hydroxyethylpyrrolidinium): totally decomposed after 3 | % Recovery ([1]; 80° C., 3 wk, 30240 min, listed as 25HC3S hydroxyethylpyrrolidinium, 30240 min): 0.0% | Assay ([1]; 80° C., 3 wk, 30240 min, listed as 25HC3S hydroxyethylpyrrolidinium): 0.0 % w/w | % Impurities, Total [1, 5]: 99.9% | Stability after 1 week at 60° C. (in words) ([1]; 60° C.): stable | Stability after 3 weeks at 80° C. (in words) ([1]; 80° C., 3 weeks): totally decomposed | Solubility in 0.9% NaCl ([2]; 0.9% NaCl, room temperature, as free acid, ND = not detected, detection limit 0.7 μg/mL, 1440 min, listed as 25HC3S hydroxyethylpyrrolidinium): 3 µg/mL | Solubility in 5% Dextrose ([2]; room temperature, as free acid, LOD 0.0007 mg/mL, 1440 min): 642 µg/mL | Solubility in 5% Dextrose ([2]; room temperature, as free acid, ND = not detected, detection limit 0.7 μg/mL, 1440 min, listed as 25HC3S hydroxyethylpyrrolidinium): 642 µg/mL | Solubility in acetonitrile (in words) ([2]; ACN, room temperature): relatively high solubility | Solubility in FaSSGF (in words) ([2]; FaSSGF, room temperature): high solubility | Solubility in FaSSGF ([2]; FaSSGF, room temperature, as free acid, ND = not detected, detection limit 0.7 μg/mL, 1440 min, listed as 25HC3S hydroxyethylpyrrolidinium): 10 µg/mL | Solubility in FaSSIF (in words) ([2]; FaSSIF, room temperature): high solubility | Solubility in FaSSIF ([2]; FaSSIF, room temperature, as free acid, 1440 min, listed as 25HC3S hydroxyethylpyrrolidinium): 161 µg/mL | Solubility in FaSSIF (in words) ([2]; FaSSIF, room temperature, listed as crystalline 25HC3S hydroxyethylpyrrolidinium): relatively high solubility | Solubility in FaSSIF ([2]; Fasted State Simulated Intestinal Fluid, room temperature, as free acid, 1440 min): 161 µg/mL | Solubility in FeSSIF (in words) ([2]; room temperature): high solubility | Solubility in FeSSIF (in words) [2, 6]: relatively high solubility | Solubility in methanol (in words) ([2]; room temperature): did not reach saturation | Solubility in ACN ([2]; acetonitrile, room temperature, as free acid, 1440 min, listed as 25HC3S hydroxyethylpyrrolidinium): 1200 µg/mL | Solubility in 5% dextrose (in words) ([2]; room temperature): highest solubility | Solubility in 5% dextrose (in words) [2, 6]: relatively high solubility | Solubility in IPA ([2]; isopropyl alcohol, room temperature, as free acid, 1440 min, listed as 25HC3S hydroxyethylpyrrolidinium): 6700 µg/mL | Solubility in saline / 0.9% sodium chloride (in words) ([2]; room temperature): highest solubility | Solubility in water (in words) ([2]; water, room temperature): highest solubility | Solubility in H2O ([2]; water, room temperature, as free acid, ND = not detected, detection limit 0.7 μg/mL, 1440 min, listed as 25HC3S hydroxyethylpyrrolidinium): 273 µg/mL
Compound: CC(CCCC(C)(C)O)C1CCC2C3CC=C4CC(OS(=O)(=O)O)CCC4(C)C3CCC12C (stereo not drawn) [Salt #6]

Assay ([1]; 2-8° C., 3 wk, 30240 min, listed as 25HC3S magnesium): 90.8 % w/w | % Impurities, Total [1, 7]: 1.6% | Overall physical and chemical stability (in words) ([1]; 2-8° C., 60° C., 80° C.): least physically and chemically stable | Overall physical and chemical stability (in words) ([1]; 2-8° C., 60° C., 80° C., listed as magnesium): least stable | % Impurities, 25-HC [1, 7]: 0.3% | Physical and chemical solid-state stability (comments) [1, 8]: Totally decomposed after 1 week at 60 °C | Assay ([1]; 60° C., 1 wk (after 3 weeks at 2-8° C.), 10080 min, listed as 25HC3S magnesium, 10080 min): 0.0 % w/w | % Recovery of 2-8° C./3 wk vs 60° C./1 wk ([1]; 60° C., 1 wk, 10080 min, listed as 25HC3S magnesium): 0.0% | % Recovery ([1]; 80° C., 3 wk, 30240 min, listed as 25HC3S magnesium, 30240 min): 0.0% | Assay ([1]; 80° C., 3 wk, 30240 min, listed as 25HC3S magnesium): 0.0 % w/w | % Impurities, Total ([1]; 80° C., 3 wk, listed as 25HC3S magnesium): 100% | Stability after 1 week at 60° C. (in words) ([1]; 60° C.): totally decomposed | Stability after 3 weeks at 80° C. (in words) ([1]; 80° C., 3 weeks): totally decomposed | Solubility in ethanol (in words) ([2]; EtOH, room temperature): did not reach saturation | Solubility in FaSSGF (in words) ([2]; FaSSGF, room temperature, listed as crystalline 25HC3S magnesium): low solubility | Solubility in FaSSGF ([2]; Fasted State Simulated Gastric Fluid, pH 1.6, room temperature, as free acid, LOD 0.0007 mg/mL): no solubilized drug was detected | Solubility in methanol (in words) ([2]; room temperature): did not reach saturation | Solubility in methanol (in words) [2, 10]: relatively high solubility | Solubility in saline / 0.9% sodium chloride (in words) [2, 10]: low solubility
Compound: CC(CCCC(C)(C)O)C1CCC2C3CC=C4CC(OS(=O)(=O)O)CCC4(C)C3CCC12C (stereo not drawn) [Salt #13]
dissolution of decomposed samples in diluent / degradants observed (comments) [1, 8]: decomposed samples at 60 °C after 1 week did not dissolve in the diluent,; also recorded: therefore, no degradants were observed. However, the decomposed | Physical and chemical solid-state stability (comments) [1, 9]: Totally decomposed after 1 week at 60 °C and after 3 weeks at 80 °C | dissolution of decomposed samples in diluent / degradants observed (comments) [1, 9]: samples at 80 °C after 3 weeks may have dissolved slightly in the diluent,; also recorded: therefore, degradation products were observed
